Test results from patent US4738970A, “Benzimidazolyl-thio-tetrahydroquinolines and anti-peptic ulcer compositions containing the same” (Otsuka Pharmaceutical Co., Ltd., priority 1984, dated 1988).

How the values were obtained:
H^+ -K^+ -ATPase = molecular target: T1, H^+ -K^+ -ATPase (Sus scrofa, UniProt P19156); test: Inhibitory Effect Test for the Activity of H^+ -K^+ -ATPase; type: biochemical; conditions: H+-K+-ATPase from the stomach of swine; preincubation pH 6.1, room temperature 30 min; reaction pH 7.4, 37° C. 30 min; read-out: IC50 (50% inhibition dosage)
T1 construct: which was prepared from the stomach of swine; from tissue; host or cells: stomach of swine
T1 sequence (P19156 2-1034 limits assumed): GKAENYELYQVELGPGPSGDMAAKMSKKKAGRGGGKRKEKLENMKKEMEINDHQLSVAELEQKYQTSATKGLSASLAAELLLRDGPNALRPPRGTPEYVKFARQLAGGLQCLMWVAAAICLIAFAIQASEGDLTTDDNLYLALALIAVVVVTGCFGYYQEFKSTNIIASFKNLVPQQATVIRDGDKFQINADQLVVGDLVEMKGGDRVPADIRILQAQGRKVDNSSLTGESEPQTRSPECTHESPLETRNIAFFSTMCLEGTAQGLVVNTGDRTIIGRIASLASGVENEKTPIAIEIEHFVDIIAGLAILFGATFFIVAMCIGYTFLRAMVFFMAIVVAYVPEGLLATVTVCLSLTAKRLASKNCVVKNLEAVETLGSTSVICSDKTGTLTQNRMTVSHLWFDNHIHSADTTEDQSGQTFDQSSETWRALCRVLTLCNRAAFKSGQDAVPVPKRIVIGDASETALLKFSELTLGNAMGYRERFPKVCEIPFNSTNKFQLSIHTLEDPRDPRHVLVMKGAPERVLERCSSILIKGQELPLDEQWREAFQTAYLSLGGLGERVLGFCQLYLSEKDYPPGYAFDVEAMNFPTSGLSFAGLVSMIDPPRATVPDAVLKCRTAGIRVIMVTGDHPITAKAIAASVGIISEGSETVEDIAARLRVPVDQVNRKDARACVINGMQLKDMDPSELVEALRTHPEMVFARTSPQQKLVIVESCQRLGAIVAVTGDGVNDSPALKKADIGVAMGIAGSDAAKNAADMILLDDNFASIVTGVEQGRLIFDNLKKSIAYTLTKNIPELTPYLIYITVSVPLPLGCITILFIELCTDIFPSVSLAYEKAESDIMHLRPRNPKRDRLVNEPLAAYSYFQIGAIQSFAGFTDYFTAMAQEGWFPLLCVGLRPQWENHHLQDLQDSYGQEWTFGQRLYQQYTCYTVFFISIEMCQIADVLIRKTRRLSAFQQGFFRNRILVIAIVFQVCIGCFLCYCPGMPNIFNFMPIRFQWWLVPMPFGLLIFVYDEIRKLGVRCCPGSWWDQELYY
T1 sequence (P18434 whole entry partner): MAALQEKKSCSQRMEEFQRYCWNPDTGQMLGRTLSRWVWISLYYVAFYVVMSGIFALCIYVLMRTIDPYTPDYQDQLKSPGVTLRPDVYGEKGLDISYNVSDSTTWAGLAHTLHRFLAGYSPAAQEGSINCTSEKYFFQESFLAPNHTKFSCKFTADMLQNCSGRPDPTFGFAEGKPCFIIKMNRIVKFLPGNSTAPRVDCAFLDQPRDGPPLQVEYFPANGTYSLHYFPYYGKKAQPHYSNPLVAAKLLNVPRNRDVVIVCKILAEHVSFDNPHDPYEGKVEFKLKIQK
Experimental: H^+ -K^+ -ATPase (hydrogen-potassium-activated adenosine triphosphatase) (protein content: 10 mcg) which was prepared from the stomach of swine was added to PIPES-tris[buffer PIPES-tris(hydroxymethyl)-2-amino-1,3-propanediol buffer (pH=6.1) containing 2 mM of piperazine-N,N'-bis(2-ethanesulfonic acid)], then the resulting mixture was let allowed to stand at room temperature.
Each of the test compounds was dissolved in dimethylformamide, and the dimethylformamide solution was added to the above-mentioned H^+ -K^+ -ATPase buffer solution so as to adjust the final concentration of the test compound to 1.0%. Each of thus prepared mixture was reacted at room temperature for 30 minutes.
Next, the above-mentioned reaction mixture was divided into two portions, and to the one portion thereof was added 1 ml of 75 mM PIPES-tris buffer solution (pH=7.4) (containing 4 mM of MgCl2, 4 mM of Na2 ATP and 20 mM of KCl), on the other hand, to another portion of the reaction mixture was added 1 ml of 75 mM PIPES-tris buffer solution (pH=7.4) (containing 4 mM of MgCl2 and 4 mM of Na2 ATP), respectively. Each of these two series of sample solutions was separately reacted at 37° C. for 30 minutes. Then to each of these reaction mixtures was added 0.3 ml of 40% trichloroacetic acid to terminate the reaction, and was subjected to centrifugal separation at 3,000 rpm for 10 minutes to obtain the supernatent. Next, the inorganic phosphoric acid formed in the reaction mixture was determined by a method according to the article by C. H. Fiske and Y. Subbarow: J. Biol. Chem., Vol. 66, pages 375-400, (1925). The difference of the value obtained by substracting the quantity of inorganic phosphoric acid determined by using PIPES-tris buffer solution without containing 20 mM of KCl from the quantity of inorganic phosphoric acid determined by using PIPES-tris buffer solution containing 20 mM of KCl, was converted into as activity value of enzyme with respect to the unit protein and unit time.
Inhibitory rate (%) of each of the test compounds was obtained from the activity value of the enzyme at the respective dosages in the test groups and those of obtained from the control group, then IC50 (50% inhibition dosage of each of the test compounds) was calculated from the inhibitory rate (%).

[1] = test system: secretion of hydrochloric acid in the stomach; test: Inhibitory Effect Test for the Secretion of Hydrochloric Acid in the Stomach; type: in vivo, Wistar strain male rats; conditions: Rattus norvegicus; Wistar male rats, pylorus ligated, histamine dihydrochloride 1 mg/kg/hour stimulated; injected into the duodenum; probit analysis; read-out: ED50 (inhibition of the secretion of hydrochloric acid)
Experimental: Wistar strain male rats were used as test animals. The test animals were abstained from food for 24 hours, then the pyloric sphincter of the test animal was ligated under anesthetized condition with urethane (1.5 g/kg), and a perfusion cannula for the stomach was inserted into the stomach.
The stomach was perfused with physiological saline through a peroral catheter, and the quantity of gastric juice secreted was measured by determining the pH and by titrating the total acidity of the perfusate.
The secretion of gastric juice was accelerated by injecting histamine dihydrochloride as the secretion stimulant in the rate of 1 mg/kg/hour continuously through the femoral vein, then the effect of each of the compounds was tested. Each of the test compounds was dissolved in dimethylformamide, and the predetermined dosage (maximum: 30 mg/kg) of each of the test compounds was administered by injecting the test compound solution into the duodenum.
Inhibition rate (%) of the secretion of hydrochloric acid was calculated by taking the value of the hydrochloric acid secreted before the administration of each of the test compounds as the reference. ED50 value of each of the test compounds was calculated from the inhibitory rate (%) of each of the test compounds and treated mathematically by probit (probability unit) analysis.

SMILES | IC50 (H^+ -K^+ -ATPase) [nM] | ED50 [1] [mg/kg]
[O-][S+](c1nc2ccc(F)cc2[nH]1)C1CCCc2cccnc21 (centres unmarked) [Test compound 32, 8-(5-Fluoro-2-benzimidazolyl)sulfinyl-5,6,7,8-tetrahydroquinoline] | 1700 | 5.2
COc1ccc2nc([S+]([O-])C3CCCc4cc(C)cnc43)[nH]c2c1 (centres unmarked) [Test compound 26, 3-Methyl-8-(5-methoxy-2-benzimidazolyl)-sulfinyl-5,6,7,8-tetrahydroquinoline] | 3700 | 15.7
[O-][S+](c1nc2ccccc2[nH]1)C1CCCc2cccnc21 (centres unmarked) [Test compound 12, 8-(2-Benzimidazolyl)sulfinyl-5,6,7,8-tetrahydroquinoline] | 1200 | 8.5
C#CCOc1c(C)cnc2c1CCCC2[S+]([O-])c1nc2cc(C)c(C)cc2[nH]1 (centres unmarked) [Test compound 6, 8-(5,6-Dimethyl-2-benzimidazolyl)sulfinyl-3-methyl-4-propargyloxy-5,6,7,8-tetrahydroquinoline] | 460 | 
COc1ccc2nc([S+]([O-])C3CCCc4c3ncc(C)c4OC)[nH]c2c1 (centres unmarked) [Test compound 49, 3-Methyl-4-methoxy-8-(5-methoxy-2-benzimidazolyl)sulfinyl-5,6,7,8-tetrahydroquinoline] | 280 | 
Cc1cnc2c(c1)CCCC2[S+]([O-])c1nc2ccccc2[nH]1 (centres unmarked) [Test compound 15, 3-Methyl-8-(2-benzimidazolyl)sulfinyl-5,6,7,8-tetrahydroquinoline] | 1800 | 
COCCOc1c(C)cnc2c1CCCC2[S+]([O-])c1nc2ccc(F)cc2[nH]1 (centres unmarked) [Test compound 10, 8-(5-Fluoro-2-benzimidazolyl)sulfinyl-4-(2-methoxyethoxy)-3-methyl-5,6,7,8-tetrahydroquinoline] | 870 | 
COc1c(C)cnc2c1CCCC2[S+]([O-])c1nc2cc(F)c(F)cc2[nH]1 (centres unmarked) [Test compound 43, 3-Methyl-4-methoxy-8-(5,6-difluoro-2-benzimidazolyl)sulfinyl-5,6,7,8-tetrahydroquinoline] | 280 | 
COc1cc2nc([S+]([O-])C3CCCc4cc(C)cnc43)[nH]c2cc1OC (centres unmarked) [Test compound 19, 3-Methyl-8-(5,6-dimethoxy-2-benzimidazolyl)-sulfinyl-5,6,7,8-tetrahydroquinoline] | 3100 | 

Further compounds by falling IC50 (H^+ -K^+ -ATPase), results first:

IC50 (H^+ -K^+ -ATPase) [nM] | SMILES | ED50 [1] [mg/kg]
29200 | COc1c(C)cnc(C[S+]([O-])c2nc3cnccc3[nH]2)c1C (centres unmarked) [Test compound 46, 2-[(3,5-Dimethyl-4-methoxy-2-pyridyl)-methylsulfinyl]imidazo[4,5-c]pyridine] | 
2700 | COc1ccc2nc([S+]([O-])C3CCCc4ccc(Cl)nc43)[nH]c2c1 (centres unmarked) [Test compound 21, 2-Chloro-8-(5-methoxy-2-benzimidazolyl)-sulfinyl-5,6,7,8-tetrahydroquinoline] | 
2340 | COc1c(C)cnc(C[S+]([O-])c2nc3nc(Br)ccc3[nH]2)c1C (centres unmarked) [Test compound 45, 5-Bromo-2-[(3,5-dimethyl-4-methoxy-2-pyridyl)methylsulfinyl]imidazo[4,5-b]pyridine] | 
2300 | COc1ccc2nc([S+]([O-])C3CCCc4ccc(O)nc43)[nH]c2c1 (centres unmarked) [Test compound 29, 2-Hydroxy-8-(5-methoxy-2-benzimidazolyl)-sulfinyl-5,6,7,8-tetrahydroquinoline] | 
2100 | COc1ccc2nc([S+]([O-])C3CCCc4cc(C)c(Cl)nc43)[nH]c2c1 (centres unmarked) [Test compound 22, 2-Chloro-3-methyl-8-(5-methoxy-2-benzimidazolyl)sulfinyl-5,6,7,8-tetrahydroquinoline] | 
1900 | Cc1ccc2nc([S+]([O-])C3CCCc4cccnc43)[nH]c2c1 (centres unmarked) [Test compound 17, 8-(5-Methyl-2-benzimidazolyl)sulfinyl-5,6,7,8-tetrahydroquinoline] | 17.2
1000 | [O-][S+](c1nc2ccc(Cl)cc2[nH]1)C1CCCc2cccnc21 (centres unmarked) [Test compound 20, 8-(5-Chloro-2-benzimidazolyl)sulfinyl-5,6,7,8-tetrahydroquinoline] | 4.4
610 | C=CCOc1c(C)cnc2c1CCCC2[S+]([O-])c1nc2cc(C)c(C)cc2[nH]1 (centres unmarked) [Test compound 4, 4-Allyloxy-8-(5,6-dimethyl-2-benzimidazolyl)-sulfinyl-3-methyl-5,6,7,8-tetrahydroquinoline] | 
340 | COc1c(C)cnc2c1CCCC2[S+]([O-])c1nc2cc(C)c(C)cc2[nH]1 (centres unmarked) [Test compound 38, 3-Methyl-4-methoxy-8-(5,6-dimethyl-2-benzimidazolyl)sulfinyl-5,6,7,8-tetrahydroquinoline] | 
